Drawing on patent publication US20240383882A1 (Ecstasy LLC, priority 2020, published 2024), this text covers ED50 for 26 compounds.

The structures appear in SMILES notation. Where only a bound is given, the exact number is not on record here.

For the first test, the system named is male C57BL/6 mice. The test is described as follows: 55° C. warm-water tail-flick test (antinociception). As to conditions: Mus musculus, sc, 0.5 h, compounds of Table I; s.c.; 30 min; 55° C. water; configuration tested as in Table II; read-out: ED50 (mg/kg) at 30 min on C57BL/6 mice in Warm-water Tail-flick Test. In kind it is in vivo. Here is the method: Antinociception was assessed using the 55° C. warm-water tail-flick test. The latency to the first sign of a rapid tail flick was taken as the behavioral endpoint. Each mouse was first tested for baseline latency by immersing its tail in the water and recording the time to response. Mice not responding within 2 secs were excluded from further testing. Responsive mice were then s.c. administered the test compound and tested for antinociception at 30 min, 60 min, 90 min, and 120 min time points afterward. Antinociception was calculated using the following formula: percentage of antinociception=100×(test latency−control latency)/(20−control latency).
The following new compounds were also made and tested to determine the half maximal possible effective dose, or ED50 (mg/kg), in mice, using one of: the warm water tail-flick test as in Table II, spared nerve injury, chronic constriction injury, or Complete Freund's adjuvant induced inflammatory pain. The symbols in the last column are: + indicates ED 50>50 mg/kg; ++ indicates ED 50 is less than or equal to 30 mg/kg.
For orientation: Thermal pain tests record how soon the animal reacts.
As for `Cc1ccc(C(C)(C)N2CCC(CCc3ccc(F)s3)(CNS(=O)(=O)C(C)C)C2)cn1` (single isomer, unassigned) [Compound 320], the ED50 was at most 30 mg/kg.

In the case of `Cc1ccc(C(C)(C)N2CCC(CCc3ccc(F)s3)(CNS(=O)(=O)N(C)C)C2)cn1` (single isomer, unassigned) [Compound 121], the ED50 is at most 30 mg/kg.

On to `Cc1ccc(C(C)(C)N2CCC(CCc3ccc(F)s3)(c3ncc(C(C)(C)C)[nH]3)C2)cn1` (single isomer, unassigned) [Compound 282], for which the ED50 is at most 30 mg/kg.

Still in this test, the particulars now being: Mus musculus; half maximal effective dose in mice; using one of: warm water tail-flick test, spared nerve injury, chronic constriction injury, or Complete Freund's adjuvant induced inflammatory pain (not stated which per compound); read-out: Biological Activity (ED50).
On to `Cc1ccc(C(C)(C)N2CC[C@@](CCc3ccc(F)cc3)(CS(C)(=O)=O)C2)cn1` [Compound 16, (R)-5-(2-(3-(4-fluorophenethyl)-3-((methylsulfonyl)methyl)pyrrolidin-1-yl)propan-2-yl)-2-methylpyridine], for which the ED50 is at most 30 mg/kg. Same read-out and setting: to `CC(C)(c1ccccn1)N1CC[C@](CO)(CCc2ccc3nonc3c2)C1` [Compound 167, (R)-(3-(2-(benzo[c][1,2,5]oxadiazol-5-yl)ethyl)-1-(2-(pyridin-2-yl)propan-2-yl)pyrrolidin-3-yl)methanol] belongs at most 30 mg/kg. `CC1(C)COC1[C@]1(CCc2ccc(C#N)cc2)CCN(Cc2ncc(Cl)s2)C1` (single isomer, unassigned) [Compound 211, 4-(2-((R)-1-((5-chlorothiazol-2-yl)methyl)-3-((R or S)-3,3-dimethyloxetan-2-yl)pyrrolidin-3-yl)ethyl)benzonitrile]: the ED50 is at most 30 mg/kg. Still for that read-out and setting: to `CC(C)(c1ccccn1)N1CC[C@](C#N)(CCc2ccc3ccoc3c2)C1` [Compound 180, (R)-3-(2-(benzofuran-6-yl)ethyl)-1-(2-(pyridin-2-yl)propan-2-yl)pyrrolidine-3-carbonitrile] belongs over 50 mg/kg; to `CNC(=O)[C@]1(CCc2ccc(C#N)cc2)CCN(C(C)(C)c2ccccn2)C1` [Compound 155, (R)-3-(4-cyanophenethyl)-N-methyl-1-(2-(pyridin-2-yl)propan-2-yl)pyrrolidine-3-carboxamide], at most 30 mg/kg; to `CC(C)(c1ccc(C(F)(F)F)nc1)N1CC[C@@](CCc2ccc(C#N)cc2)(COCC(F)(F)F)C1` [Compound 28, (R)-4-(2-(3-((2,2,2-trifluoroethoxy)methyl)-1-(2-(6-(trifluoromethyl)pyridin-3-yl)propan-2-yl)pyrrolidin-3-yl)ethyl) benzonitrile], over 50 mg/kg. On the same count and under the same terms, with `Fc1ccc(CC[C@@]2(C3CCO3)CCN(Cc3cccnc3)C2)cc1` (single isomer, unassigned) [Compound 12, 3-(((R)-3-(4-fluorophenethyl)-3-((R or S)-oxetan-2-yl)pyrrolidin-1-yl)methyl)pyridine] the figure was at most 30 mg/kg; with `CCOC(C(F)(F)F)(C(F)(F)F)[C@]1(CCc2ccc(C#N)cc2)CCN(Cc2ccc(C)nc2)C1` [Compound 8, (R)-4-(2-(3-(2-ethoxy-1,1,1,3,3,3-hexafluoropropan-2-yl)-1-((6-methylpyridin-3-yl)methyl)pyrrolidin-3-yl)ethyl) benzonitrile], over 50 mg/kg; with `COc1cccc(C(C)(C)N2CC[C@@](CCc3ccc(C#N)cc3)(C(N)=O)C2)c1` [Compound 148, (R)-3-(4-cyanophenethyl)-1-(2-(3-methoxyphenyl)propan-2-yl)pyrrolidine-3-carboxamide], over 50 mg/kg.

As to `N#Cc1ccc(CC[C@@]2(C3CCO3)CCN(Cc3cccnc3)C2)cc1` (single isomer, unassigned) [Compound 11, 4-(2-((R)-3-((R or S)-oxetan-2-yl)-1-(pyridin-3-ylmethyl)pyrrolidin-3-yl)ethyl) benzonitrile], the ED50 is at most 30 mg/kg. Same read-out and setting: to `CCOC(C(F)(F)F)(C(F)(F)F)[C@]1(CCc2ccc(C)cc2)CCN(C(C)(C)c2ccc(C)nc2)C1` [Compound 7, (R)-5-(2-(3-(2-ethoxy-1,1,1,3,3,3-hexafluoropropan-2-yl)-3-(4-methylphenethyl)pyrrolidin-1-yl)propan-2-yl)-2-methylpyridine] belongs over 50 mg/kg; to `CC(C)(c1ccccn1)N1CC[C@@](CCc2ccc(C#N)cc2)(C(O)c2ccccc2)C1` (single isomer, unassigned) [Compound 57], at most 30 mg/kg; to `Cc1cccc(C(C)(C)N2CC[C@@](CCc3ccc(C#N)cc3)(C(N)=O)C2)n1` [Compound 149, (R)-3-(4-cyanophenethyl)-1-(2-(6-methylpyridin-2-yl)propan-2-yl)pyrrolidine-3-carboxamide], over 50 mg/kg. On the same count and under the same terms, to `Cc1cccc(C(C)(C)N2CC[C@@](CCc3ccc(C#N)cc3)(C(=O)O)C2)n1` [Compound 145, (R)-3-(4-cyanophenethyl)-1-(2-(6-methylpyridin-2-yl)propan-2-yl)pyrrolidine-3-carboxylic acid] belongs over 50 mg/kg; to `CC(C)(c1ccccn1)N1CC[C@@](CCc2ccc(C#N)cc2)(CNC2(C#N)COC2)C1` [Compound 209, (S)-3-(((3-(4-cyanophenethyl)-1-(2-(pyridin-2-yl)propan-2-yl)pyrrolidin-3-yl)methyl)amino) oxetane-3-carbonitrile], over 50 mg/kg.

On to `CC(C)(c1ccccn1)N1CC[C@](COCc2ccccc2)(C2CCCO2)C1` (single isomer, unassigned) [Compound 42], for which the ED50 is over 50 mg/kg.

Consider `CC(C)(c1ccccn1)N1CC[C@@](CCc2ccc(C#N)cc2)(C(=O)Nc2ccc(F)cn2)C1` [Compound 207, (R)-3-(4-cyanophenethyl)-N-(5-fluoropyridin-2-yl)-1-(2-(pyridin-2-yl)propan-2-yl)pyrrolidine-3-carboxamide], for which the ED50 was at most 30 mg/kg.

With `CCOC[C@]1(CCc2ccccc2C#N)CCN(C(C)(C)c2ccccn2)C1` [Compound 130, (R)-2-(2-(3-(ethoxymethyl)-1-(2-(pyridin-2-yl)propan-2-yl)pyrrolidin-3-yl)ethyl) benzonitrile], the ED50 was over 50 mg/kg. On the same count and under the same terms, to `CCOC[C@]1(CCc2ccc(C#N)cc2)CCN(C(C)(C)c2ccccn2)C1` [Compound 132, (R)-4-(2-(3-(ethoxymethyl)-1-(2-(pyridin-2-yl)propan-2-yl)pyrrolidin-3-yl)ethyl) benzonitrile] belongs over 50 mg/kg; to `CC(C)(c1ccccn1)N1CC[C@@](CCc2ccc(C#N)cc2)(c2nnco2)C1` [Compound 124, (R)-4-(2-(3-(1,3,4-oxadiazol-2-yl)-1-(2-(pyridin-2-yl)propan-2-yl)pyrrolidin-3-yl)ethyl) benzonitrile], over 50 mg/kg. Still for that read-out and setting: with `CC(C)(c1ccccn1)N1CC[C@@](CCc2ccccc2C#N)(COCc2ccccc2)C1` [Compound 126, (R)-2-(2-(3-((benzyloxy)methyl)-1-(2-(pyridin-2-yl)propan-2-yl)pyrrolidin-3-yl)ethyl) benzonitrile] the figure was over 50 mg/kg; with `CC1(C)COC1[C@]1(CCc2ccc(C#N)cc2)CCN(Cc2cccnc2)C1` (single isomer, unassigned) [Compound 193, 4-(2-((R)-3-((R or S)-3,3-dimethyloxetan-2-yl)-1-(pyridin-3-ylmethyl)pyrrolidin-3-yl)ethyl) benzonitrile], at most 30 mg/kg; with `CCOC(C(F)(F)F)(C(F)(F)F)[C@]1(CCc2ccc(C#N)cc2)CCN(C(C)(C)c2ccns2)C1` [Compound 22, (R)-4-(2-(3-(2-ethoxy-1,1,1,3,3,3-hexafluoropropan-2-yl)-1-(2-(isothiazol-5-yl)propan-2-yl)pyrrolidin-3-yl)ethyl) benzonitrile], at most 30 mg/kg.
